Source: the NIST ThermoML archive (doi:10.1016/j.jct.2006.07.013)
± gives the expanded uncertainty stated by the source.

Tests used:
[1] = refractive index (Na D-line) (dimensionless); settings: 298.15 K, 101.33 kPa, Liquid
[2] = 298.15 K, 101.33 kPa, Liquid; for speed of sound: Sing-around technique in a fixed-path interferometer

refractive index ([1]; refractometer) | mass density ([2]; Vibrating tube method) [kg/m3] | SMILES | refractive index ([1]; Standard Abbe refractometry) | mass density [2] [kg/m3] | speed of sound [2] [m/s]
 |  | COC(C)=O [methyl ethanoate] | 1.35893 ± 0.00037 | 927.36 ± 0.65 | 1154 ± 1.2
 |  | CCCCOC(C)=O [butyl ethanoate] | 1.39191 ± 0.00051 | 876.35 ± 1.9 | 1193.1 ± 2.1
 |  | Cc1ccccc1 [toluene] | 1.4939 ± 0.00031 | 862.34 ± 0.18 | 1306.3 ± 0.7
1.40945 ± 0.00021 | 875.88 ± 0.23 | CCCCCCC(=O)OC [methyl heptanoate] |  |  | 1254.6 ± 1.2
